Columns and labels:
Assay type in all cases: cell-based
[1] = system: CNRIP1 mRNA expression in colon cancer cell lines; assay: Quantitative gene expression of CNRIP1 in colon cancer cell lines before and after epigenetic drug treatment; conditions: for increase in relative expression of CNRIP1, the two doses compared: low dose 1 uM versus high dose 10 uM, 72 h, six colon cancer cell lines; for relative expression of CNRIP1 (fold change, untreated sample as calibrator): six colon cancer cell lines HT29, SW48, HCT15, SW480, RKO, LS1034, AZA 1 or 10 uM 72 h, TSA 0.5 μM 12 h, combination 1 μM AZA 72 h + 0.5 μM TSA last 12 h
Description: (§1) Gene expression was measured in 6 colon cancer cell lines before and after treatment with epigenetic drugs. The relative expression levels of SPG20, INA and CNRIP1 in the colon cancer cell lines (n=6) was measured. […] The mean expression of ACTB and GUSB was used as endogenous control. TaqMan real-time fluorescence detection (Applied Biosystems, Foster city, CA) was used to quantify mRNA levels in the colon cancer cell lines, as previously described [Gibson et al. and Heid et al.]. cDNA was generated from five μg total RNA using a High-Capacity cDNA Archive kit (Applied Biosystems), including random primers according to the manufacturers' protocol. cDNA from the genes of interest (SPG20, INA and CNRIP1) and the endogenous controls (ACTB and GUSB) were amplified separately by the 7900HT Sequence Detection System (Applied Biosystems) following the protocol recommended by supplier. All samples were analyzed in triplicates. The expression levels were calculated as fold changes using the […] method and the untreated sample as a calibrator. In order to adjust for the possibly variable amounts of cDNA input in each PCR, we normalized the expression quantity of the target genes with the housekeeping genes ACTB and GUSB. Six colon cancer cell lines, HCT15, HT29, SW48, SW480, RKO and LS1034 were subjected to treatment with the demethylating drug 5-aza-2'deoxycytidine (1 μM for 72 h and 10 uM for 72 h), the histone deacetylase inhibitor trichostatin A (0.5 μM for 12 h) and a combination of both (1 μM 5-aza-2'deoxycytidine for 72 h, 0.5 μM trichostatin A added the last 12 h).

[2] = system: INA mRNA expression in colon cancer cell lines; assay: Quantitative gene expression of INA in colon cancer cell lines before and after epigenetic drug treatment; conditions: for increase in relative expression of INA, the two doses compared: low dose 1 uM versus high dose 10 uM, 72 h, six colon cancer cell lines; for relative expression of INA (fold change, untreated sample as calibrator): six colon cancer cell lines HT29, SW48, HCT15, SW480, RKO, LS1034, AZA 1 or 10 uM 72 h, TSA 0.5 μM 12 h, combination 1 μM AZA 72 h + 0.5 μM TSA last 12 h
Description: as §1

[3] = system: SPG20 mRNA expression in colon cancer cell lines; assay: Quantitative gene expression of SPG20 in colon cancer cell lines before and after epigenetic drug treatment; conditions: for increase in relative expression of SPG20, the two doses compared: low dose 1 uM versus high dose 10 uM, 72 h, six colon cancer cell lines; for relative expression of SPG20 (fold change, untreated sample as calibrator): six colon cancer cell lines HT29, SW48, HCT15, SW480, RKO, LS1034, AZA 1 or 10 uM 72 h, TSA 0.5 μM 12 h, combination 1 μM AZA 72 h + 0.5 μM TSA last 12 h
Description: as §1

[4] = system: MAL mRNA expression in colon cancer cell lines; assay: Real-time quantitative gene expression of MAL in colon cancer cell lines after drug treatment
Description: Six colon cancer cell lines, HCT15, HT29, SW48, SW480, RKO and LS1034 were subjected to treatment with the demethylating drug 5-aza-2′deoxycytidine (1 μM for 72 h and 10 uM for 72 h), the histone deacetylase inhibitor trichostatin A (0.5 μM for 12 h) and a combination of both (1 μM 5-aza-2′deoxycytidine for 72 h, 0.5 μM trichostatin A added the last 12 h). Total RNA was extracted from cell lines (n=46), tumours (n=16), and normal tissue (n=3) using Trizol (Invitrogen, Carlsbad, Calif., USA) and the RNA concentration was determined using ND-1000 Nanodrop (NanoDrop Technologies, Wilmington, Del., USA). For each sample, total RNA was converted to cDNA using a High-Capacity cDNA Archive kit (Applied Biosystems), including random primers. MAL (Hs00242749_m1 and Hs00360838_m1) and the endogenous controls ACTB (Hs99999903_m1) and GUSB (Hs99999908_m1) were amplified separately in 96 well fast plates following the recommended protocol (Applied Biosystems), and the real time quantitative gene expression was measured by the 7900HT Sequence Detection System (Applied Biosystems). All samples were analyzed in triplicate, and the median value was used for data analysis. The human universal reference RNA (containing a mixture of RNA from ten different cell lines; Stratagene) was used to generate a standard curve, and the resulting quantitative expression levels of MAL were normalized against the mean value of the two endogenous controls.

[5] = system: MAL promoter methylation in colon cancer cell lines; assay: Methylation-specific PCR (MSP) of the MAL promoter in colon cancer cell lines after drug treatment; conditions: colon cancer cell lines HT29 and HCT15 (FIG. 9)
Description: Six colon cancer cell lines, HCT15, HT29, SW48, SW480, RKO and LS1034 were subjected to treatment with the demethylating drug 5-aza-2′deoxycytidine (1 μM for 72 h and 10 uM for 72 h), the histone deacetylase inhibitor trichostatin A (0.5 μM for 12 h) and a combination of both (1 μM 5-aza-2′deoxycytidine for 72 h, 0.5 μM trichostatin A added the last 12 h). DNA from primary tumours and normal mucosa samples was bisulphite treated as previously described. DNA from colon cancer cell lines was bisulphite treated using the EpiTect bisulphite kit (Qiagen Inc., Valencia, Calif., USA). The promoter methylation status of all genes was analyzed by methylation-specific polymerase chain reaction (MSP) using the HotStarTaq DNA polymerase (Qiagen). All results were confirmed with a second independent round of MSP. Human placental DNA (Sigma Chemical Co, St. Louis, Mo., USA) treated in vitro with SssI methyltransferase (New England Biolabs Inc., Beverly, Mass., USA) was used as a positive control for the methylated MSP reaction, whereas DNA from normal lymphocytes was used as a positive control for unmethylated alleles. Water was used as a negative control in both reactions.

[6] = listed as 5-aza-2′deoxycytidine
[7] = colon cancer cell lines HT29 and HCT15 (FIG. 9)

| Compound | increase in relative expression of CNRIP1, the two doses compared [1] | increase in relative expression of CNRIP1, the two doses compared [1, 6] | relative expression of CNRIP1 (fold change, untreated sample as calibrator) [1] | increase in relative expression of INA, the two doses compared [2] | increase in relative expression of INA, the two doses compared [2, 6] | relative expression of INA (fold change, untreated sample as calibrator) [2] | increase in relative expression of SPG20, the two doses compared [3] | increase in relative expression of SPG20, the two doses compared [3, 6] | relative expression of SPG20 (fold change, untreated sample as calibrator) [3] | MAL mRNA expression ([4]; HCT15 cells) | MAL mRNA expression ([4]; HT29 cells) | MAL mRNA expression [4, 7] | promoter methylation of MAL (MSP) [5] |
| --- | --- | --- | --- | --- | --- | --- | --- | --- | --- | --- | --- | --- | --- |
| Nc1ncn([C@H]2C[C@H](O)[C@@H](CO)O2)c(=O)n1 [5-aza-2′-deoxycytidine] | comparable effects | comparable increases | Up-regulated mRNA expression | comparable effects | comparable increases | Up-regulated mRNA expression | comparable effects | comparable increases | Up-regulated mRNA expression | more moderate levels | high expression | up-regulated mRNA expression | Decreased promoter methylation |
| CC(/C=C/C(=O)NO)=C\[C@@H](C)C(=O)c1ccc(N(C)C)cc1 [trichostatin A] | – | – | did not increase the gene expression | – | – | did not increase the gene expression | – | – | did not increase the gene expression | – | – | did not increase MAL expression | – |

— patent publication US20150176079A1, “MARKERS FOR CANCER” (OSLO UNIVERSITETSSYKEHUS HF, priority 2007, published 2015)
